Laboratory results reported in PMC10777851, “SMT-738: a novel small-molecule inhibitor of bacterial lipoprotein transport targeting Enterobacteriaceae” (Antimicrobial Agents and Chemotherapy, 2023).
Values after ≈ are worked out from the molar mass of the structure shown. Values joined by “and” are separate entries in the source; they are usually repeats but may differ in a detail not shown here. Identical values can stand only once.

Columns and labels:
Protein binding, dog = format: in vitro ADME
[1] = tested on: two respiratory isolates (carrying NDM-5 and TEM-OSBL) from Russia in 2019; assay: MIC against two cefiderocol-resistant respiratory isolates; format: cell-based
Protocol: (§1) MIC tests were performed by broth microdilution in-line with CLSI susceptibility testing standards ([20], [21]) either in-house or at IHMA (Europe and USA) or JMI Laboratories using cation-adjusted Mueller Hinton Broth.

Protein binding, human = format: in vitro ADME
Protein binding, rat = format: in vitro ADME
Edwardsiella tarda = assay: MIC, panel of 100 bacterial species; format: cell-based
Protocol: as §1

Hafnia alvei = assay: MIC, panel of 100 bacterial species; format: cell-based
Protocol: as §1

Proteus sp. = assay: MIC, panel of 100 bacterial species; format: cell-based
Protocol: as §1

Haemophilus influenzae = assay: MIC, panel of 100 bacterial species; format: cell-based
Protocol: as §1

[2] = tested on: Haemophilus parainfluenzae; assay: MIC, panel of 100 bacterial species; format: cell-based
Protocol: as §1

Morganella morganii = assay: MIC, panel of 100 bacterial species; format: cell-based
Protocol: as §1

[3] = tested on: UPEC (E. coli NCTC 13441) LolC and LolE mutants; assay: MIC fold change of resistant LolC/LolE mutants, UPEC; format: cell-based, Escherichia coli
Protocol: as §1
The FoR of bacterial strains to test compounds was determined by plating aliquots of overnight cultures onto MH-agar plates containing dilutions of the test compound at various multiples of reference MIC as previously determined. Total viable counts of the overnight cultures were determined by spotting 10–20 µL of decimal dilutions in 1× phosphate-buffered saline (PBS) onto non-selective agar. Assay plates were incubated for up to 48 h with colonies being enumerated every 24 h. FoR was determined by dividing the number of colonies observed by the total number of viable cells plated. Representative colonies were then picked and streaked onto selective agar to confirm resistance and obtain resistant isolates. Isolates growing on selective agar were then used to initiate overnight cultures, bacteria pelleted by centrifugation, supernatant removed, and pellets stored at −80°C for subsequent DNA extraction and whole-genome sequencing. Genomic DNA was extracted using the DNeasy Blood and Tissue Kit (Qiagen), quantified using the Quant-iT TM PicoGreen TM dsDNA Assay Kit (Thermo Fisher Scientific), and normalized to 0.2 ng/µL in nuclease-free water. […]

E. coli NCTC 13441 = assay: Time-kill experiment, E. coli; format: cell-based, Escherichia coli; settings: 2× and 4× the MIC
Protocol: An overnight culture of the test strain was diluted to a viable cell density of ~10^6 CFU/mL and dispensed into 96-well plates containing dilutions of SMT-738 to yield the specified multiple of the MIC. Plates were sealed with a breathable seal and incubated under shaking conditions in a humid incubator at 37°C. At specific timepoints (t = 0, 1, 2, 4, 6, 8, and 24 h), samples were taken and plated onto MH agar plates, and colonies enumerated after overnight growth at 37°C. Viable cell numbers as log10 (CFU/mL) were then plotted against time. Where no colonies were detected, the limit of detection was 100 CFU/mL. Compound activity was scored as bactericidal if the viable cell count decreased by at least 3 log10 from the initial count.

[4] = tested on: Renal proximal tubule epithelial cells; assay: Nephrotoxicity assay (cell health markers); format: cell-based; settings: top concentration of 500 µM (= 196.85 µg/mL)
Protocol: The standard nephrotoxicity assay was performed by Cyprotex, UK. Renal proximal tubule epithelial cells were exposed to a range of concentrations of compound, loaded with relevant dye/antibody for each cell health marker and scanned using a fluorescent cellular imager (ArrayScan, Thermo Scientific Cellomics). Cell health parameters that were analyzed: cell count, nuclear size, DNA structure, mitochondrial mass, mitochondrial membrane potential, phospholipidosis, glutathione content, and cellular ATP.

E. coli UTI89 = assay: Murine UTI infection model; format: in vivo, female C3H/HeN mice; settings: urine and kidney, 20 mg/kg QD or BID, 60-min IV infusion over 3 days, readout 96 h; below the limit of detection
Protocol: Female JVC (jugular venous catheter)-cannulated C3H/HeN mice were placed on drinking water which was supplemented with 5% glucose solution prior to infection. Mice were infected transurethrally with E. coli UTI89 following published methods. SMT-738 was intravenously infused over 60 min once (QD) or twice (BID, 4 h after the end of first infusion) per day for 3 days starting 24 h post-inoculation. The mice from pre-treatment group were euthanized (with an overdose of pentobarbitone) at 24 h, the remaining mice were euthanized at 96 h post-infection. The kidney, bladder, and urine were collected and quantitatively cultured by plating serial dilutions on appropriate media; CFU were counted after overnight incubation at 37°C. A Kruskal-Wallis statistical test was performed.

E. coli = assay: MIC by broth microdilution (CLSI) against E. coli; format: cell-based, Escherichia coli
Protocol: as §1

[5] = 100 MDR clinical isolates incl. ESBL and CRE

Cc1cnccc1-c1[nH]c(N)nc1-c1ccc2c(c1)N(C(=O)C(C)(C)N)CCO2 [SMT-738]
protein binding (Protein binding, dog): 50.6% | MIC ([1]; first of the two respiratory isolates): 0.25 µg/mL (≈ 0.637 µM) | MIC ([1]; second of the two respiratory isolates): 0.5 µg/mL (≈ 1.27 µM) | protein binding (Protein binding, human): 62.7% | protein binding (Protein binding, rat): 64.4% | MIC (Edwardsiella tarda): 32 µg/mL (≈ 81.5 µM) | MIC (Hafnia alvei): 32 µg/mL (≈ 81.5 µM) | MIC (Proteus sp.): 8 to 32 µg/mL | MIC (Haemophilus influenzae): 1 µg/mL (≈ 2.55 µM) | MIC [2]: 1 µg/mL (≈ 2.55 µM) | MIC (Morganella morganii): > 64 µg/mL | MIC fold change increase ([3]; LolC L256R mutant): L256R (16×) | MIC fold change increase ([3]; LolE D264A mutant): D264A (128×) | re-growth over the 24-h timepoint (E. coli NCTC 13441): no observed re-growth | timepoint at which bactericidal activity was displayed (E. coli NCTC 13441): 2 h | reduction of viability (E. coli NCTC 13441; 2-h timepoint): > 3 log10 CFU/mL | nephrotoxicity [4]: No toxicity was observed | reduction of bacterial burden compared to pre-treatment (E. coli UTI89): 5–6 log10 | MIC Range E. coli (NDM) (E. coli; 15 clinical MDR NDM isolates (NDM-1, NDM-4, NDM-5) from India (2018)): 0.25 to 1 µg/mL | MIC50 E. coli (E. coli; [5]): 0.5 µg/mL (≈ 1.27 µM) | MIC90 E. coli (E. coli; [5]): 1 µg/mL (≈ 2.55 µM) | MIC range E. coli (E. coli; [5]): 0.12 to 4 µg/mL | MIC (E. coli; E. coli BAA 2469 (NDM-1 positive)): 0.5 µg/mL (≈ 1.27 µM) | MIC (20% HS) (E. coli; E. coli IHMA 2015405, 20% human serum): 0.25 µg/mL (≈ 0.637 µM) | MIC (50% HS) (E. coli; E. coli IHMA 2015405, 50% human serum): 0.25 µg/mL (≈ 0.637 µM) | MIC (no HS) (E. coli; E. coli IHMA 2015405, no human serum): 0.5 µg/mL (≈ 1.27 µM) | MIC (20% HS) (E. coli; E. coli IHMA 2051414, 20% human serum): 0.5 µg/mL (≈ 1.27 µM) | MIC (50% HS) (E. coli; E. coli IHMA 2051414, 50% human serum): 0.5 µg/mL (≈ 1.27 µM) | MIC (no HS) (E. coli; E. coli IHMA 2051414, no human serum): 0.5 µg/mL (≈ 1.27 µM) | MIC (E. coli; E. coli NCTC 13441 (UPEC, MDR, CTX-M-15 ESBL)): 0.39 µM and 0.15 µg/mL | MIC (E. coli; E. coli UTI89): 0.5 µg/mL (≈ 1.27 µM) | MICref (E. coli; UPEC13441, reference MIC of the FoR experiments): 0.3 µg/mL
